Laboratory results: patent US20220169660A1, “CYCLIC AMINO-PYRAZINECARBOXAMIDE COMPOUNDS AND USES THEREOF” (SILVERBACK THERAPEUTICS, INC., priority 2019, published 2022)

How the values were obtained:
[1] = test system: TGFβ/SMAD Singling Pathway SBE reporter cell line; test: TGFβ reporter assay (in vitro small molecule screening); format: cell-based; conditions: SBE luciferase reporter cells, TGFβ stimulation, 18 h, luminescence
Protocol: TGFβ/SMAD Singling Pathway SBE reporter cell line was obtained from BPS Bioscience. Cells were passed, expanded, and stored in liquid nitrogen as per the supplier's instructions with the exception that growth media is changed to DMEM-C with Geneticin (DMEM supplemented with 10% fetal bovine serum, 1×NEAA, 1 mM Pyruvate, 2 mM glutamine, 50 μg/mL penicillin, 50 U/mL streptomycin and 400 μg/mL of Geneticin). The assay media was MEM supplemented with […] fetal bovine serum, 1×NEAA, 1 mM Pyruvate, 50 μg/mL penicillin and 50 U/mL streptomycin.
Test samples (at desired concentrations diluted in assay media) were added to a 96-well assay plate, 20 μL per well. Reporter cells were harvested from the tissue culture flasks by incubation in small quantity of PBS at 37° C. for two minutes after the media in the flask is removed and cells rinsed with PBS. Cells were counted and diluted in the assay media at approximately 0.5×10^6 cells/mL and then 80 μL/well of cells were added to the assay plate containing the 20 μL/well of test samples (or media only), and incubated for approximately 5-6 hours at 37° C. in a 5% CO2 humidified incubator. After that time, 15 μL of TGFβ diluted to 12 ng/mL in the assay media was added to the plate. Controls included TGFβ titration (from 50 to 0 ng/mL) without inhibitors, and media only (without cells, inhibitor or TGFβ). Plates were incubated at 37° C. in a 5% CO2 humidified incubator for 18 h. Luciferase substrate solution is subsequently added at 100 μL per well, incubated in the dark at room temperature for 15 min, and luminescence is measured using a luminometer. EC50 values and curve fits were obtained using Prism (GraphPad Software).

[2] = biological target: T1, TGFBR2 (Homo sapiens, UniProt P37173); test: TGFBR2 RBC enzyme assay (Reaction Biology Corp.); format: biochemical
T1 construct: purchased Reaction Biology Corp
Protocol: Compounds of the disclosure were assayed by Reaction Biology Corp. using the TGFBR2 RBC enzyme assay.

T1 sequence (P37173 23-567): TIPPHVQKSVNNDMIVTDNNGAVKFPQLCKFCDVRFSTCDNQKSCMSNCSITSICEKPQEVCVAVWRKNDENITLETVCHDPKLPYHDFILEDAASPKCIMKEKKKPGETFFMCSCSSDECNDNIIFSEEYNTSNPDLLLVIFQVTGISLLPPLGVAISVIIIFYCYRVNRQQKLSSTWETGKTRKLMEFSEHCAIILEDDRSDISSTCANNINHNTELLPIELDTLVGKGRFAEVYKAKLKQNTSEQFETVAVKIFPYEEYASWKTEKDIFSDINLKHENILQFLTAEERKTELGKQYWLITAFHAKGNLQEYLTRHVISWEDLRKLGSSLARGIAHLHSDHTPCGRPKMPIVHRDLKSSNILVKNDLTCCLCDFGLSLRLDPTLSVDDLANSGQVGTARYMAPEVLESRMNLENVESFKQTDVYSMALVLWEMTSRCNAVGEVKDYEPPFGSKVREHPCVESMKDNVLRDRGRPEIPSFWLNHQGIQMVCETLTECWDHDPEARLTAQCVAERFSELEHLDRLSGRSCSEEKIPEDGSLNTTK

Row | EC50 [1] [nM] | EC50 [2] [nM] | SMILES
1 | > 5000 | > 1000 | CC(C)(C)OC(=O)N1C[C@H]2C[C@H]1COc1ccncc1NC(=O)c1nc(cnc1N)-c1cccc(c1)O2 (racemic) [Compound 39, (±)-tert-butyl(4^3,4^5-trans)-1^5-amino-9-oxo-3,6-dioxa-8-aza-1(2,6)-pyrazina-7(4,3)-pyridina-4(3,5)-pyrrolidina-2(1,3)-benzenacyclononaphane-41-carboxylate]
2 | > 5000 | 100 to 1000 | CN1CCCNC(=O)c2cc(ccc2OCCCN)-c2cnc(N)c(n2)C(=O)Nc2cnccc21 [Compound 53, 2^5-amino-1^4-(3-aminopropoxy)-6-methyl-4,6,10-triaza-2(2,6)-pyrazina-5(3,4)-pyridina-1(1,3)-benzenacycloundecaphane-3,11-dione]
3 | 1 to 1000 | 1 to 100 | Nc1ncc2nc1C(=O)Nc1cnccc1SCCCOc1ccc(Br)c-2c1 [Compound 51, 2^5-amino-1^6-bromo-10-oxa-6-thia-4-aza-2(2,6)-pyrazina-5(3,4)-pyridina-1(1,3)-benzenacyclodecaphan-3-one]
4 | > 5000 | > 1000 | CC(C)(C)OC(=O)N1C[C@@H]2C[C@@H]1COc1cccc(c1)-c1cnc(N)c(n1)C(=O)Nc1cnccc1O2 (racemic) [Compound 35, (±)-tert-butyl(5^2,5^4-trans)-1^5-amino-9-oxo-3,6-dioxa-8-aza-1(2,6)-pyrazina-7(4,3)-pyridina-5(2,4)-pyrrolidina-2(1,3)-benzenacyclononaphane-51-carboxylate]
5 | 1 to 1000 | 1 to 100 | CN1CCCCOc2cccc(c2)-c2cnc(N)c(n2)C(=O)Nc2cnccc21 [Compound 5, 2^5-amino-6-methyl-11-oxa-4,6-diaza-2(2,6)-pyrazina-5(3,4)-pyridina-1(1,3)-benzenacycloundecaphan-3-one]
6 | 1 to 1000 | 100 to 1000 | Nc1ncc2nc1C(=O)Nc1cnccc1OC[C@@H]1C[C@@H](CN1)Oc1cccc-2c1 (racemic) [Compound 42, (±)-(4^3,4^5-cis)-1^5-amino-3,6-dioxa-8-aza-1(2,6)-pyrazina-7(4,3)-pyridina-4(3,5)-pyrrolidina-2(1,3)-benzenacyclononaphan-9-one]
7 | > 5000 | > 1000 | Nc1ncc2nc1C(=O)Nc1cnccc1OCCCOc1cccc-2c1 [Compound 21, 2^5-amino-6,10-dioxa-4-aza-2(2,6)-pyrazina-5(3,4)-pyridina-1(1,3)-benzenacyclodecaphan-3-one]
8 | 1 to 1000 | 1 to 100 | Nc1ncc2nc1C(=O)Nc1cnccc1NCCCOc1cccc-2c1 [Compound 4, 2^5-amino-10-oxa-4,6-diaza-2(2,6)-pyrazina-5(3,4)-pyridina-1(1,3)-benzenacyclodecaphan-3-one]
9 | > 5000 | > 1000 | Nc1ncc2nc1C(=O)Nc1cnccc1O[C@H]1CC[C@H](CC1)Oc1cccc-2c1 [Compound 43, (4^1,4^4-cis)-1^5-amino-3,5-dioxa-7-aza-1(2,6)-pyrazina-6(4,3)-pyridina-2(1,3)-benzena-4(1,4)-cyclohexanacyclooctaphan-8-one]
10 | > 5000 | > 1000 | Nc1ncc2nc1C(=O)Nc1cnccc1O[C@@H]1CN[C@@H](COc3cccc-2c3)C1 (racemic) [Compound 36, (±)-(5^2,5^4-trans)-1^5-amino-3,6-dioxa-8-aza-1(2,6)-pyrazina-7(4,3)-pyridina-5(2,4)-pyrrolidina-2(1,3)-benzenacyclononaphan-9-one]
11 | 1 to 1000 | 1 to 100 | Nc1ncc2nc1C(=O)Nc1cnccc1OCCOc1cccc-2c1 [Compound 50, 2^5-amino-6,9-dioxa-4-aza-2(2,6)-pyrazina-5(3,4)-pyridina-1(1,3)-benzenacyclononaphan-3-one]
12 | > 5000 | > 1000 | Nc1ncc2nc1C(=O)Nc1cnccc1N1CCC(CC1)COc1cccc-2c1 [Compound 22, 1^5-amino-3-oxa-7-aza-1(2,6)-pyrazina-6(4,3)-pyridina-5(4,1)-piperidina-2(1,3)-benzenacyclooctaphan-8-one]
13 | 1 to 1000 | 1 to 100 | CN1CCCOc2cc(ccc2OCCCN)-c2cnc(N)c(n2)C(=O)Nc2cnccc21 [Compound 61, 2^5-amino-1^4-(3-aminopropoxy)-6-methyl-10-oxa-4,6-diaza-2(2,6)-pyrazina-5(3,4)-pyridina-1(1,3)-benzenacyclodecaphan-3-one]
14 | 1000 to 5000 | 100 to 1000 | CN1CCCNC(=O)c2cccc(c2)-c2cnc(N)c(n2)C(=O)Nc2cnccc21 [Compound 31, 2^5-amino-6-methyl-4,6,10-triaza-2(2,6)-pyrazina-5(3,4)-pyridina-1(1,3)-benzenacycloundecaphane-3,11-dione]
15 | 1 to 1000 | – | CC(C)(C)OC(=O)N1C[C@@H]2C[C@H]1COc1ccncc1NC(=O)c1nc(cnc1N)-c1cccc(c1)O2 (racemic) [Compound 41, (±)-tert-butyl(4^3,4^5-cis)-1^5-amino-9-oxo-3,6-dioxa-8-aza-1(2,6)-pyrazina-7(4,3)-pyridina-4(3,5)-pyrrolidina-2(1,3)-benzenacyclononaphane-41-carboxylate]
16 | > 5000 | > 1000 | Nc1ncc2nc1C(=O)Nc1cnccc1N1CCC(CC1)Oc1cccc-2c1 [Compound 23, 1^5-amino-3-oxa-6-aza-1(2,6)-pyrazina-5(4,3)-pyridina-4(4,1)-piperidina-2(1,3)-benzenacycloheptaphan-7-one]
17 | 1 to 1000 | 1 to 100 | CN1CCOCc2cccc(c2)-c2cnc(N)c(n2)C(=O)Nc2cnccc21 [Compound 15, 2^5-amino-6-methyl-9-oxa-4,6-diaza-2(2,6)-pyrazina-5(3,4)-pyridina-1(1,3)-benzenacyclodecaphan-3-one]
18 | 1 to 1000 | 1 to 100 | CCCN1CCCOc2cccc(c2)-c2cnc(N)c(n2)C(=O)Nc2cnccc21 [Compound 17, 2^5-amino-6-propyl-10-oxa-4,6-diaza-2(2,6)-pyrazina-5(3,4)-pyridina-1(1,3)-benzenacyclodecaphan-3-one]
19 | 1 to 1000 | 1 to 100 | CN1CCCOc2cc(OCCCN)cc(c2)-c2cnc(N)c(n2)C(=O)Nc2cnccc21 [Compound 16, 2^5-amino-1^5-(3-aminopropoxy)-6-methyl-10-oxa-4,6-diaza-2(2,6)-pyrazina-5(3,4)-pyridina-1(1,3)-benzenacyclodecaphan-3-one]
20 | 1 to 1000 | 1 to 100 | CC1CCOc2cccc(c2)-c2cnc(N)c(n2)C(=O)Nc2cnccc2N1C (stereo not shown) [Compound 18, 2^5-amino-6,7-dimethyl-10-oxa-4,6-diaza-2(2,6)-pyrazina-5(3,4)-pyridina-1(1,3)-benzenacyclodecaphan-3-one]
21 | 1 to 1000 | 1 to 100 | Cc1cc2cc(c1)-c1cnc(N)c(n1)C(=O)Nc1cnccc1N(C)CCCO2 [Compound 10, 2^5-amino-1^5,6-dimethyl-10-oxa-4,6-diaza-2(2,6)-pyrazina-5(3,4)-pyridina-1(1,3)-benzenacyclodecaphan-3-one]
22 | > 5000 | – | CN1CCCC(=O)Nc2cccc(c2)-c2cnc(N)c(n2)C(=O)Nc2cnccc21 [Compound 28, 2^5-amino-6-methyl-4,6,11-triaza-2(2,6)-pyrazina-5(3,4)-pyridina-1(1,3)-benzenacycloundecaphane-3,10-dione]
23 | 1 to 1000 | 1 to 100 | CN1CCCOc2cc(OCCCN3C(=O)c4ccccc4C3=O)cc(c2)-c2cnc(N)c(n2)C(=O)Nc2cnccc21 [Compound 14, 2-(3-((2^5-amino-6-methyl-3-oxo-10-oxa-4,6-diaza-2(2,6)-pyrazina-5(3,4)-pyridina-1(1,3)-benzenacyclodecaphane-1^5-yl)oxy)propyl)isoindoline-1,3-dione]
24 | 1 to 1000 | 1 to 100 | CC1CCN(C)c2ccncc2NC(=O)c2nc(cnc2N)-c2cccc(c2)O1 (stereo not shown) [Compound 19, 2^5-amino-6,9-dimethyl-10-oxa-4,6-diaza-2(2,6)-pyrazina-5(3,4)-pyridina-1(1,3)-benzenacyclodecaphan-3-one]
25 | > 5000 | – | CN1CCCN(C)c2ccncc2NC(=O)c2nc(cnc2N)-c2ccc(OCCCN)c(c2)C1=O [Compound 54, 2^5-amino-1^4-(3-aminopropoxy)-6,10-dimethyl-4,6,10-triaza-2(2,6)-pyrazina-5(3,4)-pyridina-1(1,3)-benzenacycloundecaphane-3,11-dione]
26 | > 5000 | – | Nc1ncc2nc1C(=O)Nc1cnccc1S(=O)(=O)CCCOc1ccc(Br)c-2c1 [Compound 52, 2^5-amino-1^6-bromo-10-oxa-6-thia-4-aza-2(2,6)-pyrazina-5(3,4)-pyridina-1(1,3)-benzenacyclodecaphan-3-one 6,6-dioxide]
27 | > 5000 | – | Nc1ncc2nc1C(=O)Nc1cnccc1N1CCC(CCOc3cccc-2c3)C1 (stereo not shown) [Compound 24, 2^5-amino-9-oxa-4-aza-2(2,6)-pyrazina-5(3,4)-pyridina-6(1,3)-pyrrolidina-1(1,3)-benzenacyclononaphan-3-one]
